Each compound was assayed against GABAa receptor (assay: GABAa receptor binding assay (displacement of 3H-RO15-1788, rat cortical tissue homogenate)). Conditions: 3H-RO15-1788 0.5 nM, 30 min at 4° C., pH 7.4.
Experimental: The pharmaceutical utility of compounds of this invention are indicated by the following assay for GABAa receptor activity.
Assays are carried out as described in Thomas and Tallman (J. Bio. Chem. 156: 9838-9842, J. Neurosci. 3: 433-440, 1983). Rat conical tissue is dissected and homogenized in 25 volumes (w/v) of 0.05M Tris HCl buffer (pH 7.4 at 4° C.). The tissue homogenate is centrifuged in the cold (4°) at 20,000× g for 20'. The supernatant is decanted and the pellet is rehomogenized in the same volume of buffer and again centrifuged at 20,000× g. The supernatant is decanted and the pellet is frozen at -20° C. overnight. The pellet is then thawed and rehomogenized in 25 volume (original wt/vol) of buffer and the procedure is carried out twice. The pellet is finally resuspended in 50 volumes (w/vol of 0.05M Tris HCl buffer (pH 7.4 at […]).
Incubations contain 100 μl of tissue homogenate 100 μl of radioligand 0.5 nM (^3 H-RO15-1788 specific activity 80 Ci/mmol), drug or blocker and buffer to a total volume of 500 μl. Incubations are carried for 30 min at 4° C. then are rapidly filtered through GFB filters to separate free and bound ligand. Filters are washed twice with fresh 0.05M Tris HCl buffer (pH 7.4 at 4° C.) and counted in a liquid scintillation counter. 1.0 μM diazepam is added to some tubes to determine nonspecific binding. Data are collected in triplicate determinations, averaged and % inhibition of total specific binding is calculated. Total Specific Binding=Total-Nonspecific. In some cases, the amounts of unlabeled drugs is varied and total displacement curves of binding are carried out. Data are convened to a form for the calculation of IC50 and Hill Coefficient (nH).
`O=C(OCc1ccccc1)N1CCc2[nH]c(=O)n3cc(-c4ccccc4F)nc3c2C1` [Compound 44, 9-Carbobenzyloxy-2-(2-fluorophenyl)-7,8,9,10-tetrahydro-imidazo[1,2-c]pyrido[3,4-e]pyrimidin-5(6H)-one] gave an IC50 of 10 nM.
Work on `O=c1[nH]c2c(c3nc(-c4ccccc4F)cn13)CN(Cc1ccc(F)cc1)CC2` [Compound 22, 9-(4-Fluorobenzyl)-2-(2-fluorophenyl)-7,8,9,10-tetrahydro-imidazo[1,2-c]pyrido[3,4-e]pyrimidin-5(6H)-one] yielded an IC50 of 3.8 nM.
Compound `O=C(c1ccccc1)N1CCc2[nH]c(=O)n3cc(-c4ccccc4F)nc3c2C1` [Compound 1, 9-Benzoyl-2-(2-fluorophenyl)-7,8,9,10-tetrahydro-imidazo[1,2-c]pyrido[3,4-e]pyrimidin-5(6H)-one] has an IC50 of 500 nM.
With `O=c1[nH]c2c(c3nc(-c4ccccc4F)cn13)CN(Cc1ccccc1F)CC2` [Compound 13, 9-(2-Fluorobenzyl)-2-(2-fluorophenyl)-7,8,9,10-tetrahydro-imidazo[1,2-c]pyrido[3,4-e] pyrimidin-5(6H)-one] the IC50 was 2.4 nM.
In the case of `CCC(=O)N1CCc2[nH]c(=O)n3cc(-c4ccccc4F)nc3c2C1` [Compound 36, 9-propionyl-2-(2-fluorophenyl)-7,8,9,10-tetrahydro-imidazo[1,2-c]pyrido[3,4-e]pyrimidin-5(6H)-one], the IC50 is reported as 10 nM.
`CN1CCc2[nH]c(=O)n3cc(-c4ccccc4F)nc3c2C1` [Compound 49, 9-Methyl-2-(2-fluorophenyl)-7,8,9,10-tetrahydro-imidazo[1,2-c]pyrido[3,4-e]pyrimidin-5(6H)-one] was tested, and the IC50 was 30 nM.
Compound `CC(c1ccccc1)N1CCc2[nH]c(=O)n3cc(-c4ccccc4F)nc3c2C1` (racemic) [Compound 21, ±9-(α-Methylbenzyl)-2-(2-fluorophenyl)-7,8,9,10-tetrahydro-imidazo[1,2-c]pyrido[3,4-e] pyrimidin-5(6H)-one] has an IC50 of 4.8 nM.
`O=c1[nH]c2c(c3nc(-c4cccc(Cl)c4)cn13)CN(Cc1ccccc1)CC2` [Compound 14, 9-Benzyl-2-(3-chlorophenyl)-7,8,9,10-tetrahydro-imidazo[1,2-c]pyrido[3,4-e] pyrimidin-5(6H)-one] gave an IC50 of 100 nM.
